US20250025443A1, “COMPOUNDS AND METHODS FOR TREATING CORONA VIRUSES” (CLEAR CREEK BIO, INC., priority 2021, published 2025)

Each compound was assayed against SARS-CoV-2 Papain-Like Protease (PLpro) (Severe acute respiratory syndrome coronavirus 2 (2019-nCoV) (SARS-CoV-2), UniProt P0DTD1) (assay: biochemical). Conditions: PLpro enzymatic fluorescence assay; class symbols; read-out: PLpro IC50.
In the case of COc1cc2c(C3(NC(=O)c4cc(OCC5CCN5C)ccc4C)CC3)cccc2cn1 (centres unmarked) [Compound 456, N-(1-(3-Methoxyisoquinolin-5-yl)cyclopropyl)-2-methyl-5-((1-methylazetidin-2-yl)methoxy)benzamide], the IC50 is reported as under 100 nM.
COc1cc(C2(NC(=O)c3cc(OC[C@@H]4CCN4C)ccc3C)CC2)c2ccc(Cl)nc2c1 [Compound 617, (S)-N-(1-(2-Chloro-7-methoxyquinolin-5-yl)cyclopropyl)-2-methyl-5-((1-methylazetidin-2-yl)methoxy)benzamide] gave an IC50 of under 100 nM.
COc1cc(C2(NC(=O)c3cc(OC[C@H]4CCN4)ccc3C)CC2)c2cccnc2c1 [Compound 554, (R)-5-(Azetidin-2-ylmethoxy)-N-(1-(7-methoxyquinolin-5-yl)cyclopropyl)-2-methylbenzamide] was tested, and the IC50 was under 100 nM.
Work on CNCCOc1ccc(C)c(C(=O)NC2(c3cc(-c4ccnn4C)cc4ncccc34)CC2)c1 [Compound 639, 2-Methyl-N-(1-(7-(1-methyl-1H-pyrazol-5-yl)quinolin-5-yl)cyclopropyl)-5-(2-(methylamino)ethoxy)benzamide] yielded an IC50 of under 100 nM.
C=C(C)c1cc(C2(NC(=O)c3cc(OC[C@@H]4CCCN4C)ccc3C)CC2)c2cccnc2c1 [Compound 719, (S)-2-Methyl-5-((1-methylpyrrolidin-2-yl)methoxy)-N-(1-(7-(prop-1-en-2-yl)quinolin-5-yl)cyclopropyl)benzamide] was tested, and the IC50 was under 100 nM.
With CNc1cc(C2(NC(=O)c3cc(OC[C@@H]4CCN4C)ccc3C)CC2)c2cccnc2c1 [Compound 763, (S)-2-Methyl-N-(1-(7-(methylamino)quinolin-5-yl)cyclopropyl)-5-((1-methylazetidin-2-yl)methoxy)benzamide] the IC50 was under 100 nM.
Cc1ccc(OC[C@@H]2CCN2C)cc1C(=O)NC1(c2cc(-c3ccc(CN(C)C)s3)cc3ncccc23)CC1 [Compound 756, (S)—N-(1-(7-(5-((Dimethylamino)methyl)thiophen-2-yl)quinolin-5-yl)cyclopropyl)-2-methyl-5-((1-methylazetidin-2-yl)methoxy)benzamide] gave an IC50 of under 100 nM.
In the case of Cc1ccc(OC[C@@H]2CCN2C)cc1C(=O)NC1(c2cc(NCc3ccccc3)cc3ncccc23)CC1 [Compound 747, (S)—N-(1-(7-(Benzylamino)quinolin-5-yl)cyclopropyl)-2-methyl-5-((1-methylazetidin-2-yl)methoxy)benzamide], the IC50 is reported as under 100 nM.
Cc1ccc(OC[C@@H]2CCN2)cc1C(=O)NC1(c2cc(-c3cnc(N4CCCCC4)nc3)cc3ncccc23)CC1 [Compound 688, (S)-5-(Azetidin-2-ylmethoxy)-2-methyl-N-(1-(7-(2-(piperidin-1-yl)pyrimidin-5-yl)quinolin-5-yl)cyclopropyl)benzamide] was tested, and the IC50 was under 100 nM.
Cc1ccc2c(C3(NC(=O)c4cc(OC[C@@H]5CCN5C)ccc4C)CC3)cc(CCC(F)(F)F)cc2n1 [Compound 815, (S)-2-Methyl-N-(1-(2-methyl-7-(3,3,3-trifluoropropyl)quinolin-5-yl)cyclopropyl)-5-((1-methylazetidin-2-yl)methoxy)benzamide] was tested, and the IC50 was under 100 nM.
COc1cc(C2(NC(=O)c3cc(OC[C@H]4CCN4C)ccc3C)CC2)c2cccnc2c1 [Compound 558, (R)-N-(1-(7-Methoxyquinolin-5-yl)cyclopropyl)-2-methyl-5-((1-methylazetidin-2-yl)methoxy)benzamide] was tested, and the IC50 was under 100 nM.
Cc1ccc(OC[C@@H]2CCN2)cc1C(=O)NC1(c2cc(/C=C/C3CC3)cc3ncccc23)CC1 [Compound 667, (S,E)-5-(Azetidin-2-ylmethoxy)-N-(1-(7-(2-cyclopropylvinyl)quinolin-5-yl)cyclopropyl)-2-methylbenzamide] gave an IC50 of under 100 nM.
Cc1ccc(OC[C@@H]2CCN2C)cc1C(=O)NC1(c2cc(OC(F)(F)F)cc3ncccc23)CC1 [Compound 579, (S)-2-Methyl-5-((1-methylazetidin-2-yl)methoxy)-N-(1-(7-(trifluoromethoxy)quinolin-5-yl)cyclopropyl)benzamide] showed an IC50 of under 100 nM.
CCCc1cc(C2(NC(=O)c3cc(OCC4CCN4C)ccc3C)CC2)c2ccccc2c1 (centres unmarked) [Compound 504, 2-Methyl-5-((1-methylazetidin-2-yl)methoxy)-N-(1-(3-propylnaphthalen-1-yl)cyclopropyl)benzamide] showed an IC50 of under 100 nM.
Cc1ccc(OCC2CCN2C)cc1C(=O)NC1(c2cc(OC(C)C)cc3ccccc23)CC1 (centres unmarked) [Compound 476, N-(1-(3-Isopropoxynaphthalen-1-yl)cyclopropyl)-2-methyl-5-((1-methylazetidin-2-yl)methoxy)benzamide] was tested, and the IC50 was under 100 nM.
C=Cc1cc2c(c(C3(NC(=O)c4cc(OC[C@@H]5CCN5C)ccc4C)CC3)c1)CCCN2 [Compound 785, (S)-2-Methyl-5-((1-methylazetidin-2-yl)methoxy)-N-(1-(7-vinyl-1,2,3,4-tetrahydroquinolin-5-yl)cyclopropyl)benzamide] gave an IC50 of under 100 nM.
Compound COCCC(NCc1cc([N+](=O)[O-])ccc1C)c1cccc2ccccc12 (centres unmarked) [Compound 113] has an IC50 of over 5000 nM.
Compound Cc1ccc(OC[C@@H]2CCN2C)cc1C(=O)NC1(c2cc(N3CCC3)cc3ncccc23)CC1 [Compound 723, (S)—N-(1-(7-(Azetidin-1-yl)quinolin-5-yl)cyclopropyl)-2-methyl-5-((1-methylazetidin-2-yl)methoxy)benzamide] has an IC50 of under 100 nM.

Same assay, conditions: SARS-CoV-2 PLpro enzymatic fluorescence assay; read-out: PLpro IC50
Cc1ccc(OCCNS(C)(=O)=O)cc1C(=O)NC1(c2cccc3ccccc23)CC1 [Compound 424, 2-Methyl-5-(2-(methylsulfonamido)ethoxy)-N-(1-(naphthalen-1-yl)cyclopropyl)benzamide] was tested, and the IC50 was 100 to 1000 nM.
Compound Cc1ccc(OCC2(N)CC2)cc1C(=O)NC1(c2cccc3ccccc23)CC1 [Compound 256] has an IC50 of under 100 nM.
Cc1ccc(OCC2CC(C)(C)N2Cc2ccccc2)cc1C(=O)NC1(c2cccc3ccccc23)CC1 (centres unmarked) [Compound 492, 5-((1-Benzyl-4,4-dimethylazetidin-2-yl)methoxy)-2-methyl-N-(1-(naphthalen-1-yl)cyclopropyl)benzamide] was tested, and the IC50 was 100 to 1000 nM.
In the case of Cc1ccc(OCCN(C)C)cc1C(=O)NC1(c2cc(-c3cccs3)cc3ccccc23)CC1 [Compound 420, 5-(2-(Dimethylamino)ethoxy)-2-methyl-N-(1-(3-(thiophen-2-yl)naphthalen-1-yl)cyclopropyl)benzamide], the IC50 is reported as under 100 nM.
Compound Cc1ccc(OCC(C)(C)N)cc1C(=O)NC1(c2cccc3ccccc23)CC1 [Compound 352, 5-(2-Amino-2-methylpropoxy)-2-methyl-N-(1-(naphthalen-1-yl)cyclopropyl)benzamide] has an IC50 of under 100 nM.
Cc1ccc(OC[C@H]2CCCN2)cc1C(=O)NC1(c2cccc3ncccc23)CC1 [Compound 371, (R)-2-methyl-5-(pyrrolidin-2-ylmethoxy)-N-(1-(quinolin-5-yl)cyclopropyl)benzamide] gave an IC50 of under 100 nM.
Cc1cc2c(C)c[nH]c2cc1C(=O)NC1(c2cccc3ccccc23)CC1 [Compound 212, 3,5-Dimethyl-N-(1-(naphthalen-1-yl)cyclopropyl)-1H-indole-6-carboxamide] was tested, and the IC50 was 100 to 1000 nM.
For Cc1ccc(OCC2CCN2C)cc1C(=O)NC1(c2cccc3cnc(O)cc23)CC1 (centres unmarked) [Compound 509, N-(1-(3-Hydroxyisoquinolin-5-yl)cyclopropyl)-2-methyl-5-((1-methylazetidin-2-yl)methoxy)benzamide], the IC50 was 100 to 1000 nM.
Work on Cc1ccc(OCCNCc2ccccc2)cc1C(=O)NC1(c2cccc3ccccc23)CC1 [Compound 360, 5-(2-(Benzylamino)ethoxy)-2-methyl-N-(1-(naphthalen-1-yl)cyclopropyl)benzamide] yielded an IC50 of under 100 nM.
For Cc1cc2cc(CN)[nH]c2cc1C(=O)NC1(c2ccc(-c3ccccc3)cc2)CC1 [Compound 244, N-(1-([1,1′-Biphenyl]-4-yl)cyclopropyl)-2-(aminomethyl)-5-methyl-1H-indole-6-carboxamide], the IC50 was over 5000 nM.
Cc1ccc(OC2CCNCC2)cc1C(=O)N[C@H](C)c1cccc2ccccc12 [Compound 162, (R)-2-Methyl-N-(1-(naphthalen-1-yl)ethyl)-5-(piperidin-4-yloxy)benzamide] gave an IC50 of 100 to 1000 nM.
In the case of COc1cc(C2(NC(=O)c3cc(OCC4CCN4C)ccc3C)CC2)c2ccc(F)cc2n1 (centres unmarked) [Compound 467, N-(1-(7-Fluoro-2-methoxyquinolin-4-yl)cyclopropyl)-2-methyl-5-((1-methylazetidin-2-yl)methoxy)benzamide], the IC50 is reported as under 100 nM.
For Cc1ccc(OC2CC(N)C2)cc1C(=O)NC1(c2cccc3ccccc23)CC1 (centres unmarked) [Compound 265, 5-(3-Aminocyclobutoxy)-2-methyl-N-(1-(naphthalen-1-yl)cyclopropyl)benzamide], the IC50 was 100 to 1000 nM.
Cc1ccc(OCC2COCCN2C)cc1C(=O)NC1(c2cccc3ccccc23)CC1 (centres unmarked) [Compound 302, 2-Methyl-5-((4-methylmorpholin-3-yl)methoxy)-N-(1-(naphthalen-1-yl)cyclopropyl)benzamide] was tested, and the IC50 was 100 to 1000 nM.
With Cc1ccc(OCC2CCCN2)cc1C(=O)NC1(c2cccc3ccccc23)CC1 (centres unmarked) [Compound 263, 2-Methyl-N-(1-(naphthalen-1-yl)cyclopropyl)-5-(pyrrolidin-2-ylmethoxy)benzamide] the IC50 was under 100 nM.
Compound Cc1cc2c(cc1C(=O)NC1(c3cccc4ccccc34)CC1)N1C(=O)NCC1C2 (centres unmarked) [Compound 194, 7-Methyl-N-(1-(naphthalen-1-yl)cyclopropyl)-3-oxo-2,3,9,9a-tetrahydro-1H-imidazo[1,5-a]indole-6-carboxamide] has an IC50 of 1000 to 5000 nM.
Cc1ccc(OC[C@H]2C[C@H](O)CN2C)cc1C(=O)NC1(c2cccc3ccccc23)CC1 (single isomer, unassigned) [Compound 439] gave an IC50 of under 100 nM.
Cc1ccc(OCCN(C)C)cc1NC(=O)C(C)c1cccc2ccccc12 (centres unmarked) [Compound 577, N-(5-(2-(Dimethylamino)ethoxy)-2-methylphenyl)-2-(naphthalen-1-yl)propanamide] gave an IC50 of over 5000 nM.
COCC(N)COc1ccc(C)c(C(=O)NC2(c3cccc4ccccc34)CC2)c1 (centres unmarked) [Compound 400, 5-(2-Amino-3-methoxypropoxy)-2-methyl-N-(1-(naphthalen-1-yl)cyclopropyl)benzamide] showed an IC50 of under 100 nM.
Work on Cc1ccc(N)cc1C(=O)NC(C#N)c1cccc2ccccc12 (centres unmarked) [Compound 195, 5-Amino-N-(cyano(naphthalen-1-yl)methyl)-2-methylbenzamide] yielded an IC50 of over 5000 nM.
